# In PubChem BioAssay AID1996:
# Conditions: buffer; pH 7.4; 200.0 µM
row,SMILES,solubility kinetic [µg/mL]
1,CCOc1ncnc2c1sc1nc(C)cc(C)c12,< 0.2
2,CCOc1ccc(N=C2NC(=O)SC2CC(=O)OC)cc1 (centres undefined),12.4
3,c1ccc(CNc2ncnc3sc4c(c23)CCCC4)nc1,6.7
4,CC(C)(C)NC(=O)c1cc2c(ccc3ccccc32)oc1=O,2.5
5,Cc1ccc(SCC(=O)N2CCC(C(N)=O)CC2)cc1,> 43.9
6,CC(NS(=O)(=O)c1ccccc1)C(=O)NC1CCCC1 (centres undefined),> 44.5
7,Cc1c(C(=O)N2CCOCC2)sc(NC(=O)CCl)c1C#N,> 49.2
8,CCCOC(=O)Nc1nc(-c2ccc(C)cc2)c(C)s1,1.3
9,COc1cc(CNCc2ccc3c(c2)OCO3)c([N+](=O)[O-])cc1OC,46.6
10,CCNC(=O)NC(=O)C(C)OC(=O)c1cccn1C (centres undefined),> 40.1
11,CCSc1nc(NCCN(C)C)c2c3c(sc2n1)COC(C)(CC)C3 (centres undefined),46.4
12,O=C(c1ccc2c(c1)OCO2)C1CCCN(Cc2ccccn2)C1 (centres undefined),32.8
13,Cc1cc(C(=O)CCC(=O)Nc2ncccc2C)c(C)s1,26.1
14,CN(C)c1ccc2c3c(ccc(N(C)C)c13)C(=O)OC2,36.6
15,Cc1nc2c(C)cccn2c(=O)c1NC(=O)c1ccco1,> 42.5
16,Nc1c(Cl)ncnc1NCc1cccnc1,> 35.4
17,COc1cc(NC(=S)N(C)CCC#N)c(OC)cc1Cl,38.9
18,COc1ccc(CCC(C)N2CCOCC2)cc1 (centres undefined),31.9
19,Cc1c(C=N)c(O)n(C)c(=O)c1C#N,> 28.7
20,COc1ccc(NC(=O)Cc2ccsc2)c(OC)c1,> 41.6
21,CCn1nc(C(=O)NNC(=O)C(Cc2ccccc2)NC(N)=O)c2ccccc2c1=O (centres undefined),> 63.4
22,Cc1cnc(C(=O)OCC(=O)NC(C)c2ccccc2)cn1 (centres undefined),> 44.9
23,CC(=O)Nc1cccc(OCCCNC(=O)c2ccc(F)cc2)c1,38.9
24,COc1ccc(CC(=O)N(Cc2ccccc2)C(C)C)cc1,40.7

row,SMILES,solubility kinetic [µg/mL]
1,Cc1ccc(NCc2ccc([N+](=O)[O-])s2)cc1,13.7
2,COc1ccccc1OCc1ccc(C(=O)NC2CCCCC2)o1,39.8
3,COC(=O)c1ccc2[nH]c3c(c2c1)CC(C)CC3 (centres undefined),0.9
4,CC(C)[C@H](NS(=O)(=O)c1ccccc1)C(=O)OCC(=O)Nc1cccc(S(N)(=O)=O)c1,61.6
5,CC(=O)Nc1cccc(-c2cc(-c3c(Cl)cccc3Cl)no2)c1,3.7
6,Cc1ccc(NC2c3ccccc3C(=O)N2c2cccnc2)cc1 (centres undefined),40.5
7,NC(=O)c1ccccc1NC(=O)CCn1c(=S)oc2ccccc21,43.2
8,O=C(Nc1ccccc1Cl)c1cc(=O)c2ccccc2o1,0.7
9,CC(=O)N1N=C(N)SC1(C)C,> 26
10,CCCCCSc1ncccc1C(=O)O,> 33.8
11,C/C(=N/O)c1ccc2ccc3ccccc3c2c1,0.6
12,CCCCCCCCCCCC(=O)N1CC(=O)NC(=O)C1,2.5
13,C=CCN(Cc1cccc(OC)c1OC)C(=O)Oc1ccccc1,9.6
14,CN(Cc1nc(-c2cccs2)no1)CC(O)c1ccccc1 (centres undefined),42.8
15,CC(Nc1ccc2c(c1)OCCO2)C(=O)N1c2ccccc2CC1C (centres undefined),> 50.8
16,CN1CCC(NC(=S)NC2CC2)CC1,> 32
17,CCn1c(=O)c(C(=O)CN(C)CC(=O)Nc2cccc(F)c2)c(N)n(Cc2ccccc2)c1=O,15.6
18,Cc1ccc(NC(=S)NCc2ccc(Cl)cc2)c(C)c1,2.3
19,Cc1ccc(C2(c3ccc(C)cc3)NC(=O)N(CC(=O)NCCCN3CCCC3=O)C2=O)cc1,> 69.4
20,COc1ccc(CCC(=O)OCC(=O)NC(=O)c2ccc(Cl)cc2)cc1,7.2
21,Clc1nccc(N2CCN(c3ccccc3Cl)CC2)n1,13.3
22,COc1cc2nc(N3CCN(C(=O)c4ccco4)CC3)nc(N)c2cc1OC.Cl,61.9
23,COc1ccccc1NC(=O)Cn1nc(C)n2cccc2c1=O,> 46.8
24,O=C(c1ccco1)N1CCC(c2nc3ccccc3[nH]2)CC1,> 44.3

row,SMILES,solubility kinetic [µg/mL]
1,O=C1NC2(CCCCCCC2)C(=O)N1Cc1ccc(F)cc1,10.5
2,CC(C)Cn1c(=O)[nH]c(=O)c2c(C(F)(F)F)cc(-c3ccccc3)nc21,< 0.3
3,c1ccc(-c2csc(-c3ccncc3)n2)cc1,24.8
4,NCCc1nc2ccccc2s1,23.2
5,COc1cc(C(=O)NCCCCc2ccccc2)cc(OC)c1OC,4.5
6,Cc1cc(C)c(NC(=S)NC(CO)(CO)CO)c(C)c1,> 44.8
7,c1ccc(-c2ccc(CN3CCSCC3)cc2)cc1,1.7
8,Cc1c(C)n(-c2ccccc2)c2ncnc(NCCCN(C)C)c12,> 48.5
9,C=CCNC(=S)/N=c1/ccccn1CCC,35.1
10,COc1ccc(NC(=O)CCc2nc3ccccc3c(=O)[nH]2)cc1S(=O)(=O)N1CCCCC1,9.6
11,COc1ccc(C(=O)Nc2c(C)cc(C)cc2C)cc1OC,> 44.9
12,O=C(CCCOc1ccc(Cl)cc1)NC1CCCCC1,1.9
13,O=C(Nc1ccc(F)cc1)Nc1cccnc1,> 34.7
14,O=C(NCCCN1CCOCC1)c1ccc(Cl)cc1Cl,> 47.6
15,CCC(C)[C@H](NC(=O)NCc1ccc(OC)c(OC)c1)C(=O)O (some centres undefined),39.9
16,CCOC(=O)CSc1nc(C)c2cc(C)c(C)cc2n1,6
17,O=C(c1cccc(NS(=O)(=O)c2cccc(F)c2)c1)N1CCCC1,51
18,Cc1ccc(NC(=O)CN2C(=O)NC3(CCCc4ccccc43)C2=O)c([N+](=O)[O-])c1 (centres undefined),36.5
19,COC(=O)c1ccccc1-c1cn(C)c2ccccc2c1=O,> 44
20,Cc1nc(-c2ccc(Cl)cc2)sc1C(=O)O,33.2
21,Cc1ccc(-c2csc(NC(=O)c3cccc(C)c3)c2C(=O)O)cc1,> 52.7
22,COc1cc(/C=C(\NC(C)=O)C(=O)O)cc(OC)c1OC,> 44.3
23,NC(=O)c1ccsc1NC(=O)COC(=O)/C=C/c1ccccc1[N+](=O)[O-],4.3
24,Oc1c(I)cc(Cl)c2cccnc12,0.8

row,SMILES,solubility kinetic [µg/mL]
1,CC(Oc1ccccc1)C(=O)N1CCN=C1SCc1ccccc1F (centres undefined),11.4
2,CCc1ccccc1NC(=O)CCN1C(=O)C2C3CCC(C3)C2C1=O (centres undefined),43
3,CN1C(=O)N(C)c2ccc(Br)c3cccc1c23,< 0.3
4,Cc1ccc(S(=O)(=O)NCCNC(=O)CN2CCOCC2)cc1,48.8
5,CN(C)c1ccc(/C=C(/NC(=O)c2ccccc2)C(=O)N2CCCC2)cc1,47.7
6,Cc1ccc(C(C)NC(=O)Cc2cccs2)c(C)c1 (centres undefined),34.4
7,CCc1cc(=O)oc2c(C)c(OC(C)C(=O)N3CCC[C@@H]3C(=O)O)ccc12 (some centres undefined),> 56
8,CCN1CCN(CC(=O)Nc2ccc(C(C)=O)cc2)CC1.Cl,45.2
9,C=CCN=C1S/C(=C/c2ccc([N+](=O)[O-])cc2)C(=O)N1CC=C,< 0.2
10,S=C(Cc1ccc(-c2ccccc2)cc1)N1CCOCC1,0.7
11,COc1ccc(C=O)cc1Oc1nc(Cl)ncc1F,32
12,COC(=O)n1c(=O)oc2ccc(S(=O)(=O)N3CCCCC3)cc21,> 51.1
13,O=C(COC(=O)c1ccccc1Br)NCC1CCCCC1,38.1
14,COc1ccc(NC(=O)CN(C)CC(=O)NCC2CCCCC2)cc1,> 52.1
15,Cc1onc(-c2ccccc2Cl)c1NC(=O)NCc1cccs1,42.6
16,CN(c1ccccc1)S(=O)(=O)c1cccc(NC(=O)CSc2nccc(=O)[nH]2)c1,> 64.6
17,Oc1cc2c(cc1CN1CCN(c3ccccc3)CC1)OCO2,17.6
18,Cc1ccc(S(=O)(=O)/N=C(/c2ccc(F)cc2)N(C)C)cc1,> 48.1
19,Cc1cc(NC(=O)CN2C(=O)c3ccccc3C2=O)no1,37.9
20,COc1ccc(NC(=O)Cc2ccc(Cl)c(Cl)c2)cn1,8.9
21,Cc1nc(N)ncc1Sc1ccccc1,5.2
22,COC(=O)c1ccccc1NC(=O)COC(=O)/C=C/c1cccs1,1.8
23,CCN(C(=O)c1ccc(Cl)c([N+](=O)[O-])c1)c1ccccc1,35.8
24,COC(=O)CCN(C(=O)c1ccc([N+](=O)[O-])cc1)c1ccccn1,> 49.4

row,SMILES,solubility kinetic [µg/mL]
1,Cc1ccc(NC2=C(Cl)C(=O)OC2OC(=O)c2ccc(C)cc2)cc1 (centres undefined),2.6
2,COc1ccc(CNC(=O)COC(=O)c2cc(S(=O)(=O)N3CCOCC3)ccc2O)cc1OC,> 74.2
3,CCC(=O)c1ccc(OCC(=O)OCC(=O)NCC2CCCO2)cc1 (centres undefined),49.5
4,O=C(/C=C/c1ccccc1[N+](=O)[O-])OC1CCCCC1=O (centres undefined),4.5
5,CS(=O)(=O)N1CCC(C(=O)Nc2cccc([N+](=O)[O-])c2)CC1,44.3
6,CSCCC(NS(=O)(=O)c1ccccc1F)C(=O)NCC(c1ccco1)N(C)C (centres undefined),> 66.5
7,CCC1CCCCN1CC(O)COCc1cccc(OC)c1 (centres undefined),31.4
8,N#C/C(=C\c1ccccc1O)C(=O)Nc1cccnc1,2.6
9,O=C(O)c1ccc(S(=O)(=O)NCc2ccc3c(c2)OCO3)cc1,> 50.3
10,Nc1c(Cl)nc(-c2ccccc2)nc1Cl,7.9
11,OC1CCNC(=S)N1c1ccccc1 (centres undefined),30.7
12,O=C(CSc1nnc2ccccn12)Nc1ccc(N2CCOCC2)cc1,> 55.4
13,Cc1sc(NC(=O)COc2ccccc2)c(C#N)c1C,0.5
14,C[C@](N)(Cc1ccc(O)c(O)c1)C(=O)O,> 31.7
15,Nc1ccccc1SCc1c(Cl)cccc1Cl,< 0.6
16,O=C(CCNC(=O)c1ccco1)Nc1nc(-c2ccccc2)cs1,8.5
17,CCC(CC)COC(=O)C1=C(C)NC(=O)NC1c1ccc(OC)cc1 (centres undefined),3
18,COCCCNC(=O)C1CCN(c2ccc(N3CCOCC3)nn2)CC1,> 54.5
19,CCC1CCCCN1C(=O)COC(=O)c1cc(=O)[nH]c2ccccc12 (centres undefined),> 51.4
20,O=C(Nc1ccccc1F)c1cc(Cl)sc1Cl,5.2
21,Cc1ccccc1NC(=O)c1cccc(S(=O)(=O)Nc2cccc(C(=O)O)c2)c1,34.6
22,COc1ccc(N2CC(C(=O)NCc3ccco3)CC2=O)cc1 (centres undefined),32.2
23,COc1ccc(Cl)cc1C(=O)N1CCN(Cc2ccc3c(c2)OCO3)CC1,47.4
